“Also recorded” adds a separate entry of the source. Values belong to the molecule of their own block, whether it stands above or below them.
What was measured:
[1] = tested on: human IL-36γ evoked CXCL1 release from Human HaCaT cells; experiment: human IL-36γ evoked CXCL1 release, human HaCaT cells; assay type: cell-based; details: ± S.D.
Protocol: (§1) The immortalized human keratinocyte cell line HaCaT and mouse fibroblast NIH-3T3 cell line were maintained in culture in DMEM with 10% fetal bovine serum and 1% penicillin/streptomycin added (Sigma). Cells were seeded in 96-well tissue culture plates (Corning) at 25,000 cells per well and allowed to adhere and recover overnight at 37 °C in an incubator. Cells were rinsed with PBS (Sigma) and treated with cytokines diluted in 200 μL/well of the medium (DMEM with 0.5% FBS and 1% penicillin/streptomycin) as indicated. In inhibition mode, the agonist concentration used was at the EC80 for chemokine production and the cells were pre-treated with inhibitors for 30 min prior to adding the agonist. After 24 h of treatment, supernatants were collected and IL-8 and CXCL1[28] levels were assessed using a custom immunoassay (Meso Scale Discovery). EC50/IC50 values were estimated from a four-parameter logistic fit using Prism software (GraphPad).

[2] = tested on: IL-36γ evoked CXCL1 release from Mouse NIH-3T3 cells; experiment: IL-36γ evoked CXCL1 release, mouse NIH-3T3 cells; assay type: cell-based; details: for IC50: NIH-3T3 cells, n = 4, read-out: IC50 attenuation of CXCL1 release induced by human IL-36γ
Protocol: as §1

human IL-36γ [3] = molecular target: T1, human IL-36γ (Homo sapiens, UniProt Q9NZH8); experiment: Thermal shift assay, human IL-36γ; assay type: binding; details: 100 μM compound; read-out: increase of melting temperature of human IL-36γ
T1 construct: His6-SUMO-human IL-36γ (18–169); His6-SUMO (N, cleaved yes); made in house; host or cells: E. coli BL21 (DE3)
T1 sequence (Q9NZH8 18-169): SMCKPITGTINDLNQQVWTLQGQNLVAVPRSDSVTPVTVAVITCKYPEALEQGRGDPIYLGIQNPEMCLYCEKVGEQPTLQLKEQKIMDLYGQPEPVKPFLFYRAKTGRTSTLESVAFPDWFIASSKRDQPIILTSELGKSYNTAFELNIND
Protocol: (§2) Thermal shift assays[30] were performed on a Roche LightCycler 480 instrument using Sypro Orange Dye (Invitrogen). Reactions consisted of 0.5–2 µM purified recombinant protein in PBS, pH 7.4, a 1/500 dilution of the stock Sypro Orange reagent, and 100 µM test compounds, resulting in a final DMSO concentration of 1%. The samples were heated from 20 °C to 95 °C at a rate of 0.25 °C per second.

human IL-36α = molecular target: T2, human IL-36α (Homo sapiens, UniProt Q9UHA7); experiment: Thermal shift assay / affinity, human IL-36α; assay type: binding; details: thermal shift assay at 100 μM (Supplementary Fig. 4)
T2 construct: using recombinant truncated proteins
T2 sequence (Q9UHA7 6-158): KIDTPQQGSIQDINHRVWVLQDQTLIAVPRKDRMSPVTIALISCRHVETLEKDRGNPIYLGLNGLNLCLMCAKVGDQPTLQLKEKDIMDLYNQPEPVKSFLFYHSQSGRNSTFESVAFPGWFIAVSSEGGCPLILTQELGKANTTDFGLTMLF
Protocol: as §2

human IL-36γ [4] = molecular target: T1, human IL-36γ; experiment: Isothermal titration calorimetry; assay type: binding; details: 25 °C, pH 7.5; read-out: KD (ITC)
Protocol: All experiments were carried out on a MicroCal^TM Auto-ITC200 at 25 °C in 50 mM HEPES (pH = 7.5), 150 mM NaCl, 0.5 mM TCEP, 2% DMSO. IL-36γ protein solution was buffer exchanged by gel filtration into the isothermal titration calorimetry (ITC) buffer and diluted to 40 µM. The titrations were conducted using an initial injection of 0.2 µL followed by 19 identical injections of 2 µL of 400 µM compound solution. Thermodynamic parameters were calculated using ∆G = ∆H − T∆S = −RTlnKB, where ∆G, ∆H and ∆S are the changes in free energy, enthalpy and entropy of binding respectively. A single binding site model was employed.

[5] = tested on: human IL-36γ induced plasma CXCL1; experiment: hIL-36γ induced CXCL1 release in mouse plasma; assay type: in vivo; details: C57BL/6 mice, compounds 10, 30 and 100 mg/kg p.o.; antibody i.p.
From the text: Female C57BL/6 mice (9–10 weeks old, 19–23 g) were purchased from Charles River Laboratories. All animal procedures were approved by AbbVie’s Institutional Animal Care and Use Committee (IACUC) and performed in accordance with the relevant IACUC guidelines and regulations. To examine engagement of human IL-36γ with antagonists under in vivo conditions, a mouse acute CXCL1 release assay was established which was similar to one previously reported. Plasma CXCL1 secretion was induced by subcutaneous injection of 2 μg human IL-36γ (in 100 μL PBS) into C57BL/6 mice. Blood was withdrawn via cardiac puncture 2 h after the challenge with IL-36γ. A-552 and A-553 were dosed at 10, 30 and 100 mg/kg p.o. 45 min before IL-36γ challenge. Anti-IL36R antibodies were dosed i.p. at 24 hours before IL-36γ challenge. Plasma CXCL1 levels were analyzed using MSD V-PLEX kit.

[6] = tested on: IL-1β evoked IL-8 release from HaCaT cells; experiment: IL-1β evoked IL-8 release assay in HaCaT cells; assay type: cell-based, human; details: agonist mode, n = 3
Protocol: as §1
The IL-8 release assays were miniaturized for HTS hit follow-up. Frozen aliquots of HaCaT cells were thawed, added to complete media, mixed, spun down, resuspended in fresh media, and dispensed using the Multidrop384 into black, clear-bottom 384 well plates at a final density of 4000 cells/well. […] Cell viability was assessed using Cell Titer-Glo (Promega) according to the manufacturers’ instructions.

[7] = molecular target: T3, human IL-36R/IL-1RAcP extracellular domain (ECD) knob-in-hole Fc (human, UniProt Q9HB29 20-335; Q9NPH3 21-367); experiment: AlphaScreen or HTRF; TR-FRET, competitive mode: unlabeled human IL-36γ or IL-36Ra titrated against 6 nM Alexa 488 human IL-36γ, receptor heterodimer 1.5 μg/mL, 6 nM Tb-anti-His antibody; Ki by the Cheng-Prusoff equation; details: both partners purified
T3 construct: human IL-36 receptor subunit (IL-36R), extracellular domain; human IL-1RAcP co-receptor subunit, extracellular domain; Both proteins were engineered with an Fc 'knob-in-hole' to force heterodimerisation; also called hIL-36R/IL-1RAcP ECD knob-in-hole Fc; human IL-36R/IL-1RAcP ECD Fc heterodimer; not shown: His tag (from the nickel column and the Tb-anti-His detection)
T3 sequence (looked up) 1: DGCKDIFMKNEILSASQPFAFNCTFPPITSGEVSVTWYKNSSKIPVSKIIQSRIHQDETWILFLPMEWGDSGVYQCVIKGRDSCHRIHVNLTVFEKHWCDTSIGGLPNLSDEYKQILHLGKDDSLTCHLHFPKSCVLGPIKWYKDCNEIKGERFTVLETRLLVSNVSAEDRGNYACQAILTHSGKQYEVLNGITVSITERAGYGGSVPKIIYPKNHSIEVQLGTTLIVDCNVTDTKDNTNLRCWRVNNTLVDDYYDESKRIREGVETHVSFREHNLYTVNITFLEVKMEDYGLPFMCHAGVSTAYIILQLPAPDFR
T3 sequence (looked up) 2: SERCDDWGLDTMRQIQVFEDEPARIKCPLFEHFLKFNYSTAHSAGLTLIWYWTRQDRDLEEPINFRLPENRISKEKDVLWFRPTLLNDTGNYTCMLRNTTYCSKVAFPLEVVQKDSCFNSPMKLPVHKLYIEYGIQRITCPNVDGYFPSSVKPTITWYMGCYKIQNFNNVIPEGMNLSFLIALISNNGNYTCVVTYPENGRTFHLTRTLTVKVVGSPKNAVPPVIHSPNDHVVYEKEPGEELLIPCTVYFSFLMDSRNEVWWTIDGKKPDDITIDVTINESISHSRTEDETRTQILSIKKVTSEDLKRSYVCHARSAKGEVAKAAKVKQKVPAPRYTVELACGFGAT

[8] = tested on: 3D human skin equivalents; experiment: IL-36γ induced 3D skin equivalent model; assay type: cell-based; details: 0.3 μg/mL hIL-36γ; 10 μM A-552, 10 μg/mL antibody or IL-36Ra; three days
Protocol: Hematoxylin & eosin (H&E) staining and immunohistochemistry (IHC) were performed using a Leica ST5010 autostainer or Leica Bond RX automated immunostainer. Standardized IHC protocols were used for anti-loricrin staining (Abcam AB85679). Stained tissue slides were digitized for image analysis using a Perkin Elmer P250 whole slide digital pathology slide scanner with 20X objective and extended focus scanning parameters. For quantitative analysis, N = 3 raft samples were analyzed per condition for each stain using whole slide digital analysis software (Indica Labs HALO). Staining was normalized to the length of the raft sample analyzed.
3D skin equivalents (SOR-300-FT-CTR) comprised of human neonatal keratinocytes and fibroblasts were purchased from MatTek, equilibrated for one day in proprietary formulated media (SOR-300-FT-CTR-MM) and then treated as indicated. Treatment groups contained hIL-36γ at 300 ng/mL, 10 μM of A-552, 10 μg/mL anti-IL36R antibody, 10 μg/mL IL-36RA, or 10 μg/mL IgG isotype control either alone or in combination with hIL-36γ. Control skin equivalents were treated with media only. Skin equivalents were treated for three days, with media collected for cytokine release studies at day two and replaced with fresh treatment media. After three days the skin equivalents were either placed in 10% neutral buffered formalin solution (for histology) or frozen (for qRT-PCR).
To measure IL-6, IL-8 and CXCL1 release from 3D skin equivalents diluted sample media collected at day 2 of the treatment (see above) was used in conjunction with V-PLEX multiplex immunoassay for IL-6 and IL-8 and a U-PLEX immunoassay for CXCL1 (Meso Scale Discovery) according to the manufacturers’ protocols.
RNA from frozen 3D skin equivalents was isolated using miRNeasy Mini Kit (Qiagen) per the manufacturers’ instructions. For qRT-PCR determination a CFX384 Real-Time System C1000 Touch Thermocycler was used. […] Each transcript measured was presented as a fold change compared to control using the ∆∆CT method as RNA fold increase where RPLP0 was used as a housekeeping gene.

ΔTm at 100 µM (human IL-36γ [3]): 1.3 °C | binding / affinity to human IL-36α (human IL-36α): do not bind | Kd (human IL-36γ [4]): 3000 ± 330 nM
Molecule: COC(c1ccccc1)(c1ccccc1)[C@@H](Oc1nc(C)cc(-c2ccc(C)c(N)c2)n1)C(=O)O [Compound A-553]
Ki [1]: 3700 ± 2300 nM | Ki ([2]; human IL-36γ evoked CXCL1 release, ± S.D.): 3700 ± 1700 nM | effect on hIL-36γ induced plasma CXCL1 release (in words) [5]: little effect; also recorded: no effect

Molecule: IL-1β: human IL-1β cytokine used in the selectivity assay
EC50 [6]: 0.0057 ± 0.0038 nM

B1: mouse IL-36Ra: mouse IL-36 receptor antagonist protein (protein, UniProt Q9QYY1 2-156, looked up)
Interleukin-36 receptor …: MVLSGALCFRMKDSALKVLYLHNNQLLAGGLHAEKVIKGEEISVVPNRALDASLSPVILGVQGGSQCLSCGTEKGPILKLEPVNIMELYLGAKESKSFTFYRRDMGLTSSFESAAYPGWFLCTSPEADQPVRLTQIPEDPAWDAPITDFYFQQCD
IC50 [2]: 19 ± 9 nM

Ki [7]: 0.4 nM
B2: human IL-36γ (18–169) (ligand, UniProt Q9NZH8 18-169, looked up)
chain: T1 sequence (Q9NZH8 18-169)
notes: human IL-36γ, residues 18-169; also called hIL-36γ; unlabeled IL-36γ; source: E. coli BL21 (DE3), purified (nickel column, ULP1 cleavage, Superdex 75 gel filtration); not shown: His6, N-terminal, cleaved; SUMO, N-terminal, cleaved

B3: human IL-36Ra: recombinant soluble human IL-36 receptor antagonist (2–155) (protein)
chain: VLSGALCFRMKDSALKVLYLHNNQLLAGGLHAGKVIKGEEISVVPNRWLDASLSPVILGVQGGSQCLSCGVGQEPTLTLEPVNIMELYLGAKESKSFTFYRRDMGLTSSFESAAYPGWFLCTVPEADQPVRLTQLPENGGWNAPITDFYFQQCD
modifications: left off: His6, N-terminal, cleaved | SUMO, N-terminal, cleaved
IC50 [2]: 23 ± 10 nM | effect on hIL-36γ induced changes in morphology, gene expression and cytokine production [8]: fully attenuated
